According to ChEMBL document CHEMBL1150582, “Brominated labdane-type diterpenoids from an Okinawan Laurencia sp” (J Nat Prod, 2002):
Active and inactive are the calls of the source.

Columns and labels:
Type in all cases: functional, organism-based
[1] = tested on: Staphylococcus epidermidis; test: Antibacterial activity against Staphylococcus epidermidis by paper disk diffusion method
Escherichia coli = test: Antibacterial activity against Escherichia coli by paper disk diffusion method
Staphylococcus aureus = test: Antibacterial activity against Staphylococcus aureus by paper disk diffusion method
Pseudomonas sp. = test: Antibacterial activity against Pseudomonas sp. by paper disk diffusion method
Salmonella sp. = test: Antibacterial activity against Salmonella sp. by paper disk diffusion method

Measured: Activity

C=C[C@@]1(C)CC[C@H]2[C@]3(C)C(=O)C[C@@H](Br)C(C)(C)[C@H]3[C@@H](O)C[C@]2(C)O1
inactive: all assays above

C=C[C@@]1(C)CC[C@H]2[C@]3(C)[C@@H](OC(C)=O)C[C@@H](Br)C(C)(C)[C@H]3[C@@H](O)C[C@]2(C)O1
inactive: all assays above
